Legend:
Test in all cases: relative viability (nuclei count vs DMSO), 5 days (fraction); higher = more cells survive
[1] = compound: CCn1c(-c2nonc2N)nc2c(C#CC(C)(C)O)ncc(OC[C@H]3CCCNC3)c21 + CC(C)C[C@H](NC(=O)[C@H](Cc1ccccc1)NC(=O)c1cnccn1)B(O)O [Bortezomib] (partner 0.002 µM)
Procedure, shortened: (§1)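 Relative viability is defined as nuclei in treated wells over nuclei in vehicle wells. Duplicate plates were run and medians reported. Lung cancer cell lines in 1536-well plates were dosed by pin tool one day after seeding, with one drug or with a fixed anchor-drug dose plus five library-drug doses (not always all listed) in √10 steps, and nuclei were counted after 5 days.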

[2] = compound: CCn1c(-c2nonc2N)nc2c(C#CC(C)(C)O)ncc(OC[C@H]3CCCNC3)c21 + C[C@]1(O)C[C@@H](c2nc(-c3ccc4ccc(-c5ccccc5)nc4c3)c3c(N)nccn32)C1 [Linsitinib] (partner 1 µM)
Procedure, shortened: as §1

[3] = compound: CCOC1=CC=CC=C1N=NC2=C(NN(C2=O)C3=NC(=CS3)C4=CC=CC=C4)C [BAM7] + O=C(c1cc(Cc2n[nH]c(=O)c3ccccc23)ccc1F)N1CCN(C(=O)C2CC2)CC1 [Olaparib] (partner 8 µM)
Procedure, shortened: as §1

[4] = compound: CCOC1=CC=CC=C1N=NC2=C(NN(C2=O)C3=NC(=CS3)C4=CC=CC=C4)C [BAM7] + Cc1nc(NC(=O)N2CCC[C@H]2C(N)=O)sc1-c1ccnc(C(C)(C)C(F)(F)F)c1 [Alpelisib] (partner 2 µM)
Procedure, shortened: as §1

Row | Cell Line | relative viability ([1]; first compound 0.01 µM) | relative viability ([1]; first compound 0.03162 µM) | relative viability ([1]; first compound 0.1 µM) | relative viability ([1]; first compound 0.3162 µM) | relative viability ([1]; first compound 1 µM) | relative viability ([2]; first compound 0.01 µM) | relative viability ([2]; first compound 0.03162 µM) | relative viability ([2]; first compound 0.1 µM) | relative viability ([2]; first compound 0.3162 µM) | relative viability ([2]; first compound 1 µM) | relative viability ([3]; first compound 0.5 µM) | relative viability ([3]; first compound 5 µM) | relative viability ([3]; first compound 15.81 µM) | relative viability ([3]; first compound 50 µM) | relative viability ([4]; first compound 0.5 µM) | relative viability ([4]; first compound 5 µM) | relative viability ([4]; first compound 50 µM) | relative viability ([4]; first compound 15.81 µM)
1 | NCI-H1975 | 0.379 | 0.351 | 0.438 | 0.314 | 0.289 | 0.887 | 1.02 | 0.913 | 0.791 | 0.86 | 0.498 | 0.617 | 0.393 | 0.602 | 0.539 | 0.508 | 0.548 | 
2 | Calu-6 | 1.01 | 1.06 | 1.1 | 0.998 | 1.12 | 0.88 | 1.06 | 0.842 | 0.952 | 0.935 | 0.552 | 0.598 | 0.53 | 0.531 | 0.986 | 0.931 | 1.11 | 0.932
3 | NCI-H1993 | 1.23 | 1.23 | 1.11 | 1.03 | 0.975 | 0.774 | 0.736 | 0.758 | 0.731 | 0.767 | 0.955 | 1.08 | 0.888 | 0.98 | 0.766 | 0.689 | 0.629 | 0.585
4 | RERF-LC-KJ | 0.997 | 1.11 | 1.06 | 0.974 | 1.2 | 0.91 | 0.871 | 0.855 | 0.856 | 0.903 | 0.346 | 0.3 | 0.288 | 0.304 | 0.814 | 0.823 | 0.766 | 0.716
5 | NCI-H23 | 0.974 | 1.06 | 0.913 | 0.861 | 1.13 | 0.542 | 0.722 | 0.619 | 0.491 | 0.611 | 0.374 | 0.271 | 0.258 | 0.291 | 0.743 | 0.782 | 0.723 | 0.656
6 | HCC-366 | 0.989 | 1.05 | 0.913 | 1.01 | 1.12 | 0.598 | 0.761 | 0.498 | 0.522 | 0.668 | 0.328 | 0.263 | 0.226 | 0.307 | 0.403 | 0.318 | 0.322 | 0.324
7 | EMC-BAC-2 | 1.02 | 1 | 0.996 | 1.06 | 1.07 | 0.82 | 0.852 | 0.837 | 0.828 | 0.837 | 0.485 | 0.476 | 0.469 | 0.565 | 0.801 | 0.778 | 0.772 | 0.713
8 | NCI-H2405 | 0.982 | 0.897 | 0.91 | 0.929 | 0.967 | 0.924 | 1.06 |  | 0.794 | 1.02 | 0.936 | 0.936 | 0.889 | 0.908 | 0.862 | 0.773 | 0.839 | 0.684
9 | EPLC-272H | 0.859 | 0.957 | 0.894 | 0.96 | 0.847 | 1.24 | 1.21 | 1.03 | 1.17 | 1.39 | 0.465 | 0.935 | 0.594 | 0.651 | 1.08 | 0.802 | 0.831 | 0.877
10 | EBC-1 | 0.549 | 0.566 | 0.521 | 0.488 | 0.444 | 0.947 | 0.776 | 0.837 | 0.732 | 0.632 | 0.712 | 0.644 | 0.626 | 0.763 | 1.05 | 0.805 | 0.953 | 0.814
11 | NCI-H1915 | 0.982 | 1.01 | 0.904 | 0.975 | 0.921 | 1.08 | 1.1 | 1.05 | 1.12 | 1.08 | 0.269 | 0.262 | 0.223 | 0.259 | 1.08 | 1.11 | 1.05 | 1.03
12 | NCI-H596 | 1.02 | 0.956 | 0.969 | 1.38 | 0.999 | 0.993 | 1.08 | 0.931 | 1.03 | 1.03 | 0.665 | 0.625 | 0.636 | 0.697 | 0.461 | 0.463 | 0.492 | 0.425
13 | NCI-H322M | 1.21 | 1.18 | 1.26 | 1.19 | 1.19 | 0.976 | 0.988 | 0.942 | 0.89 | 0.909 | 0.762 | 0.714 | 0.654 | 0.641 | 0.859 | 0.816 | 0.801 | 0.803
14 | NCI-H1299 | 1.02 | 1.04 | 0.992 | 0.988 | 1 | 0.95 | 1.06 | 0.948 | 0.941 | 1.02 | 0.961 | 1.02 | 0.981 | 0.923 | 1.06 | 1.1 | 0.992 | 1.03
15 | NCI-H2228 | 1.06 | 1.28 | 0.912 | 0.584 | 0.737 | 0.682 | 0.65 | 0.645 | 0.585 | 0.475 | 0.802 | 0.932 | 0.547 | 0.585 | 0.863 | 0.879 | 0.607 | 0.763
16 | IA-LM | 0.854 | 0.77 | 0.877 | 0.679 | 0.373 | 0.62 | 0.554 | 0.658 | 0.518 | 0.464 | 0.912 | 0.794 | 0.797 | 0.775 | 0.67 | 0.648 | 0.994 | 0.659
17 | NCI-H647 | 0.972 | 1.25 | 0.937 | 1.02 | 0.812 | 1.25 | 1.36 | 1.21 | 1.16 | 1.01 | 0.711 | 0.67 | 0.549 | 0.524 | 1.27 | 1.32 | 1.17 | 1.05
18 | NCI-H2085 | 0.861 | 1.02 | 1.03 | 1.03 | 1.05 | 0.843 | 0.91 | 0.804 | 0.879 | 0.921 | 0.83 | 0.804 | 0.785 | 0.786 | 0.957 | 1.07 | 0.981 | 0.834

Source: the supplement of paper PMC10307832
